pIC50: −log10 of the molar value. Active and inactive are the calls of the source. No cut-off for these calls is given here.

What is called pIC50 is the IC50 on a negative log10 scale, so that one unit is a factor of ten.

Experiment [1] relates to PC-3. The experiment in a line: Cytotoxicity against human PC-3 cells assessed as reduction in cell viability measured after 24 hrs by MTT assay. The class given is functional, cell-based. The note with it: PC-3, 24 h. Background: Tetrazolium assays rely on reduction of a dye to a coloured formazan, in cell work by metabolically active cells.
Experiment [2] relates to PC-3. The experiment in a line: Cytotoxicity against human PC-3 cells assessed as reduction in cell viability at 50 uM measured after 24 hrs by MTT assay relative to control. The format is functional.
The test system of experiment [3] is PC-3. Kind of experiment: Cytotoxicity against human PC-3 cells assessed as reduction in cell viability at 100 uM measured after 24 hrs by MTT assay relative to control. The class given is functional.
For experiment [4], the system named is PC-3. The experiment in a line: Cytotoxicity against human PC-3 cells assessed as reduction in cell viability at 25 uM measured after 24 hrs by MTT assay relative to control. The format is functional.
The subject of experiment [5] is PC-3. Kind of experiment: Cytotoxicity against human PC-3 cells assessed as reduction in cell viability at 10 uM measured after 24 hrs by MTT assay relative to control. The class given is functional.
For experiment [6], the system named is PC-3. The experiment in a line: Cytotoxicity against human PC-3 cells assessed as reduction in cell viability at 100 uM measured after 24 hrs by MTT assay. The class given is functional, cell-based.

On to `COc1cc(-c2cccs2)cc(-c2nnn(Cc3ccccc3)c2C)n1`, for which the pIC50 in experiment [1] was 5.99.
In the case of `O=C(/C=C/c1cnn(-c2ccccc2)n1)c1cccs1`, the Activity came out at 50% in experiment [2] and 24.23% in experiment [3]. For the same compound, the pIC50 in experiment [1] is 4.32.
Take `Cc1ccc(C(=O)/C=C/c2cnn(-c3ccccc3)n2)c(C)c1`: the Activity in experiment [4] amounted to 39.03%; in experiment [2], 3%; in experiment [5], 85.61%; in experiment [3], 0%. The pIC50 in experiment [1] is 4.81.
Consider `C/C(=C\c1cnn(-c2ccccc2)n1)C(=O)c1ccc(C(F)(F)F)cc1`, for which, in experiment [6], the outcome was inactive.
The same measure, in the same setting: in the case of `C/C(=C\c1cnn(-c2ccccc2)n1)C(=O)c1ccccc1` it was “inactive”.
In the case of `COc1cccc2c1C(=O)c1c(O)c3c(c(O)c1C2=O)C[C@@](O)(C(=O)CO)C[C@@H]3O[C@H]1C[C@H](N)[C@H](O)[C@H](C)O1` [DOXORUBICIN], in experiment [1], the pIC50 is 6.11.
For `COc1ccc(C(=O)/C=C/c2cnn(-c3ccccc3)n2)c(OC)c1`, the Activity in experiment [4] stood at 16.03%; in experiment [5], 73.03%; in experiment [3], 5.37%. For the same compound, the pIC50 in experiment [1] was 4.59.
Regarding `C/C(=C\c1cnn(-c2ccccc2)n1)C(=O)c1ccc(F)cc1`, the outcome in experiment [6] was inactive.
Turning to `O=C(/C=C/c1cnn(-c2ccccc2)n1)c1ccccc1`, the Activity in experiment [4] turned out to be 44.7%; in experiment [5], 73.62%; in experiment [3] it was 6.38%. Also, in experiment [1], the pIC50 was 4.54.
